Laboratory results as given in ChEMBL document CHEMBL1201862, “PubChem BioAssay data set” (2004).
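Following 48 hours of exposure in 96-well plates, responses at five concentrations were used to interpolate endpoints linearly. Here, GI50 denotes the concentration required for 50% inhibition of growth.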 Activity calls are given as the source filed them. No stated cut-off is given here; in the data, active = GI50 up to about 1.1 µM and inactive = higher.

Experiments:
Test in all cases: growth of human tumour cells (NCI), 48 h
HCT-116 = system: HCT-116
EKVX = system: EKVX
T47D = system: T47D
UACC-257 = system: UACC-257
NCI-H23 = system: NCI-H23
RPMI-8226 = system: RPMI-8226
OVCAR-3 = system: OVCAR-3
KM12 = system: KM12
CAKI-1 = system: CAKI-1
NCI/ADR-RES = system: NCI/ADR-RES
SK-OV-3 = system: SK-OV-3
TK-10 = system: TK-10
HOP-92 = system: HOP-92
OVCAR-8 = system: OVCAR-8
SNB-75 = system: SNB-75
OVCAR-5 = system: OVCAR-5
HOP-62 = system: HOP-62
UO-31 = system: UO-31
DU-145 = system: DU-145
CCRF-CEM = system: CCRF-CEM
NCI-H226 = system: NCI-H226
HCT-15 = system: HCT-15
SW-620 = system: SW-620
MDA-N = system: MDA-N
MDA-MB-231 = system: MDA-MB-231
U-251 = system: U-251
IGROV-1 = system: IGROV-1
SN12C = system: SN12C
Hs-578T = system: Hs-578T
786-0 = system: 786-0
SF-268 = system: SF-268
MDA-MB-435 = system: MDA-MB-435
M14 = system: M14
A549 = system: A549
RXF 393 = system: RXF 393
COLO 205 = system: COLO 205
SF-295 = system: SF-295
LOX IMVI = system: LOX IMVI
UACC-62 = system: UACC-62
MOLT-4 = system: MOLT-4
HT-29 = system: HT-29
NCI-H460 = system: NCI-H460
ACHN = system: ACHN
SK-MEL-28 = system: SK-MEL-28
NCI-H522 = system: NCI-H522
OVCAR-4 = system: OVCAR-4
SR = system: SR
SF-539 = system: SF-539
A498 = system: A498
SK-MEL-5 = system: SK-MEL-5
HCC 2998 = system: HCC 2998
MCF7 = system: MCF7

## O=C(CC(C(=O)c1cccs1)c1ccsc1)c1ccccc1 (configuration not stated)
HCT-116
  GI50: 38.3 µM (inactive)
EKVX
  GI50: > 100 µM (inactive)
T47D
  GI50: 24.7 µM (inactive)
UACC-257
  GI50: > 100 µM (inactive)
NCI-H23
  GI50: 26.4 µM (inactive)
RPMI-8226
  GI50: 48.8 µM (inactive)
OVCAR-3
  GI50: > 100 µM (inactive)
KM12
  GI50: 38.9 µM (inactive)
CAKI-1
  GI50: > 100 µM (inactive)
NCI/ADR-RES
  GI50: 25.1 µM (inactive)
SK-OV-3
  GI50: > 100 µM (inactive)
TK-10
  GI50: > 100 µM (inactive)
HOP-92
  GI50: > 100 µM (inactive)
OVCAR-8
  GI50: > 100 µM (inactive)
SNB-75
  GI50: > 100 µM (inactive)
OVCAR-5
  GI50: > 100 µM (inactive)
HOP-62
  GI50: > 100 µM (inactive)
UO-31
  GI50: 37.8 µM (inactive)
DU-145
  GI50: > 100 µM (inactive)
CCRF-CEM
  GI50: > 100 µM (inactive)
NCI-H226
  GI50: > 100 µM (inactive)
HCT-15
  GI50: 48.1 µM
SW-620
  GI50: > 100 µM (inactive)
MDA-N
  GI50: 37.5 µM (inactive)
MDA-MB-231
  GI50: 17.5 µM (inactive)
U-251
  GI50: > 100 µM (inactive)
IGROV-1
  GI50: > 100 µM (inactive)
SN12C
  GI50: > 100 µM (inactive)
Hs-578T
  GI50: > 100 µM (inactive)
786-0
  GI50: > 100 µM (inactive)
SF-268
  GI50: > 100 µM (inactive)
MDA-MB-435
  GI50: 31.4 µM (inactive)
M14
  GI50: 34.9 µM (inactive)
A549
  GI50: 21.5 µM (inactive)
RXF 393
  GI50: 61 µM (inactive)
COLO 205
  GI50: > 100 µM (inactive)
SF-295
  GI50: > 100 µM (inactive)
LOX IMVI
  GI50: > 100 µM (inactive)
UACC-62
  GI50: 50.7 µM (inactive)
MOLT-4
  GI50: 36.6 µM (inactive)
HT-29
  GI50: > 100 µM (inactive)
NCI-H460
  GI50: 51.4 µM (inactive)
ACHN
  GI50: 69.5 µM (inactive)
SK-MEL-28
  GI50: > 100 µM (inactive)
NCI-H522
  GI50: 61.7 µM (inactive)
OVCAR-4
  GI50: 24 µM (inactive)
SR
  GI50: 66.1 µM (inactive)
SF-539
  GI50: > 100 µM (inactive)
A498
  GI50: 51.8 µM (inactive)
SK-MEL-5
  GI50: 76.9 µM (inactive)
HCC 2998
  GI50: > 100 µM (inactive)
MCF7
  GI50: 30.7 µM (inactive)
